Measurements published in PubChem BioAssay AID248 (DTP/NCI, 2004).
Values joined by “and” are separate entries in the source; they are usually repeats but may differ in a detail not shown here. Equal values may be shown once. Inconclusive results and toxic doses are left out. Rule as the data show it: active = T/C of 150% or more; inactive = T/C below 125%.

Test system: L1210 leukemia ip in BDF1 mice, survival T/C
Test: NCI In Vivo Anticancer Drug Screen. Data for tumor model L1210 Leukemia (intraperitoneal) in B6D2F1 (BDF1) mice
Conditions: endpoint: mean survival time, higher = longer survival
How it was run: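 Read-out is survival time, reported as the treated-group measurement over the vehicle-control measurement.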

[1] = dose: 100.0 mg/kg/injection, schedule: Q04DX002 (ip), vehicle: Klucel (hydroxypropylcellulose) (HPC)
[2] = dose: 200.0 mg/kg/injection, schedule: Q04DX002 (ip), vehicle: Klucel (hydroxypropylcellulose) (HPC)
[3] = dose: 25.0 mg/kg/injection, schedule: Q04DX003 (ip), vehicle: saline
[4] = dose: 50.0 mg/kg/injection, schedule: Q04DX003 (ip), vehicle: saline
[5] = dose: 100.0 mg/kg/injection, schedule: Q04DX003 (ip), vehicle: saline
[6] = dose: 50.0 mg/kg/injection, schedule: Q01DX009 (ip), vehicle: Klucel (hydroxypropylcellulose) (HPC)
[7] = dose: 100.0 mg/kg/injection, schedule: Q04DX003 (ip), vehicle: Klucel (hydroxypropylcellulose) (HPC)
[8] = dose: 200.0 mg/kg/injection, schedule: Q04DX003 (ip), vehicle: Klucel (hydroxypropylcellulose) (HPC)
[9] = dose: 400.0 mg/kg/injection, schedule: Q04DX003 (ip), vehicle: Klucel (hydroxypropylcellulose) (HPC)
[10] = dose: 100.0 mg/kg/injection, schedule: Q01DX001 (ip), vehicle: saline
[11] = dose: 200.0 mg/kg/injection, schedule: Q01DX001 (ip), vehicle: saline
[12] = dose: 400.0 mg/kg/injection, schedule: Q01DX001 (ip), vehicle: saline

Measured: T/C

COc1ccc(C(=O)N/N=C/c2ccc(NC(C)=O)cc2)cc1
inactive: [1] 100 % of control | [2] 96 % of control | dose: 400.0 mg/kg/injection, schedule: Q04DX002 (ip), vehicle: Klucel (hydroxypropylcellulose) (HPC) 115 % of control

c1ccc(-c2ncc3cnccn23)cc1
inactive: [3] 100 % of control | [4] 102 % of control | [5] 98 % of control and 102 % of control

COC(=O)c1cc([N+](=O)[O-])cc([N+](=O)[O-])c1O
inactive: [6] 87 % of control | dose: 100.0 mg/kg/injection, schedule: Q04DX002 (ip), vehicle: saline with Tween-80 100 % of control | dose: 200.0 mg/kg/injection, schedule: Q04DX002 (ip), vehicle: saline with Tween-80 105 % of control

CCCCCCCCCCCCCCCCOc1ccc(C(C)(C)C)cc1
inactive: dose: 100.0 mg/kg/injection, schedule: Q01DX001 (ip), vehicle: Klucel (hydroxypropylcellulose) (HPC) 93 % of control | dose: 200.0 mg/kg/injection, schedule: Q01DX001 (ip), vehicle: Klucel (hydroxypropylcellulose) (HPC) 93 % of control | dose: 400.0 mg/kg/injection, schedule: Q01DX001 (ip), vehicle: Klucel (hydroxypropylcellulose) (HPC) 93 % of control

C1=CC2CC1CC2/C=N\N=C\C1CC2C=CC1C2 (centres undefined)
inactive: [1] 118 % of control | [2] 121 % of control

Nc1nc(-c2ccccc2)c(CC(=O)O)s1
inactive: [7] 93 % of control | [8] 100 % of control | [9] 96 % of control

CC1(O)CCCCC1c1ccccc1 (centres undefined)
inactive: dose: 100.0 mg/kg/injection, schedule: Q04DX003 (ip), vehicle: other 104 % of control | dose: 200.0 mg/kg/injection, schedule: Q04DX003 (ip), vehicle: other 95 % of control | dose: 400.0 mg/kg/injection, schedule: Q04DX003 (ip), vehicle: other 93 % of control

Cc1cc(SC#N)ccc1O
inactive: dose: 3.0 mg/kg/injection, schedule: Q01DX009 (ip), vehicle: saline with Tween-80 94 % of control | dose: 6.0 mg/kg/injection, schedule: Q01DX009 (ip), vehicle: saline with Tween-80 102 % of control | dose: 12.0 mg/kg/injection, schedule: Q01DX009 (ip), vehicle: saline with Tween-80 102 % of control | dose: 25.0 mg/kg/injection, schedule: Q01DX009 (ip), vehicle: saline with Tween-80 102 % of control | dose: 25.0 mg/kg/injection, schedule: Q04DX002 (ip), vehicle: other 93 % of control | dose: 50.0 mg/kg/injection, schedule: Q04DX002 (ip), vehicle: other 93 % of control | dose: 100.0 mg/kg/injection, schedule: Q04DX002 (ip), vehicle: other 97 % of control

Clc1ccccc1CC12CCCCC1N2 (centres undefined)
inactive: [7] 103 % of control | [8] 90 % of control | [9] 103 % of control

c1ccc([P+](Cc2ccco2)(c2ccccc2)c2ccccc2)cc1
inactive: dose: 5.0 mg/kg/injection, schedule: Q01DX001 (ip), vehicle: saline 103 % of control | dose: 10.0 mg/kg/injection, schedule: Q01DX001 (ip), vehicle: saline 97 % of control | dose: 20.0 mg/kg/injection, schedule: Q01DX001 (ip), vehicle: saline 90 % of control | dose: 40.0 mg/kg/injection, schedule: Q01DX001 (ip), vehicle: saline 89 % of control

CCN(CC)c1ccc(N=Cc2cc(=O)n(C)c3ccccc23)cc1
inactive: dose: 100.0 mg/kg/injection, schedule: Q01DX001 (ip), vehicle: carboxymethylcellulose (CMC) 101 % of control | dose: 200.0 mg/kg/injection, schedule: Q01DX001 (ip), vehicle: carboxymethylcellulose (CMC) 90 % of control | dose: 400.0 mg/kg/injection, schedule: Q01DX001 (ip), vehicle: carboxymethylcellulose (CMC) 88 % of control

CCC(NC(=O)c1ccccc1)C(=O)O (centres undefined)
inactive: [7] 95 % of control | [8] 101 % of control | [9] 103 % of control

CCOC(=O)/C(C#N)=C1\C=C(NCc2ccccc2)CCC1
inactive: [10] 89 % of control | [11] 96 % of control | [12] 92 % of control

COc1ccc([N+](=O)[O-])cc1NC(=O)N(Cc1ccccc1)c1ccccc1
inactive: [6] 96 % of control | dose: 100.0 mg/kg/injection, schedule: Q01DX009 (ip), vehicle: Klucel (hydroxypropylcellulose) (HPC) 93 % of control | dose: 200.0 mg/kg/injection, schedule: Q01DX009 (ip), vehicle: Klucel (hydroxypropylcellulose) (HPC) 96 % of control

CC(=O)Nc1ccc2c(c1)-c1ccccc1C2=O
inactive: dose: 100.0 mg/kg/injection, schedule: Q04DX003 (ip), vehicle: saline with Tween-80 98 % of control | dose: 200.0 mg/kg/injection, schedule: Q04DX003 (ip), vehicle: saline with Tween-80 100 % of control | dose: 400.0 mg/kg/injection, schedule: Q04DX003 (ip), vehicle: saline with Tween-80 98 % of control

CC(N)Cc1cn(C)c2ccccc12 (centres undefined)
inactive: dose: 6.25 mg/kg/injection, schedule: Q01DX009 (ip), vehicle: saline 96 % of control | dose: 12.5 mg/kg/injection, schedule: Q01DX009 (ip), vehicle: saline 105 % of control | dose: 25.0 mg/kg/injection, schedule: Q01DX009 (ip), vehicle: saline 103 % of control | [3] 101 % of control | dose: 50.0 mg/kg/injection, schedule: Q01DX009 (ip), vehicle: saline 105 % of control | [4] 95 % of control | dose: 100.0 mg/kg/injection, schedule: Q01DX009 (ip), vehicle: saline 97 % of control | [5] 104 % of control

ICC1OCOC2C(CI)OCOC12 (centres undefined)
inactive: dose: 100.0 mg/kg/injection, schedule: Q01DX001 (ip), vehicle: other 103 % of control | dose: 200.0 mg/kg/injection, schedule: Q01DX001 (ip), vehicle: other 93 % of control | dose: 400.0 mg/kg/injection, schedule: Q01DX001 (ip), vehicle: other 103 % of control

CCCCOC1OCN(C(C)(C)C)CC1(C)C (centres undefined)
inactive: dose: 100.0 mg/kg/injection, schedule: Q04DX002 (ip), vehicle: saline 104 % of control | dose: 200.0 mg/kg/injection, schedule: Q04DX002 (ip), vehicle: saline 112 % of control | dose: 400.0 mg/kg/injection, schedule: Q04DX002 (ip), vehicle: saline 101 % of control

CCCCCCCCCCCCCCCC(=O)N(CCCCN(C)C)CCCCN(C)C
inactive: dose: 2.0 mg/kg/injection, schedule: Q01DX009 (ip), vehicle: carboxymethylcellulose (CMC) 97 % of control | dose: 4.0 mg/kg/injection, schedule: Q01DX009 (ip), vehicle: carboxymethylcellulose (CMC) 98 % of control | dose: 6.0 mg/kg/injection, schedule: Q01DX009 (ip), vehicle: carboxymethylcellulose (CMC) 97 % of control

CC(C)[N+](=O)[O-]
inactive: dose: 62.5 mg/kg/injection, schedule: Q01DX001 (ip), vehicle: Klucel (hydroxypropylcellulose) (HPC) 104 % of control | dose: 125.0 mg/kg/injection, schedule: Q01DX001 (ip), vehicle: Klucel (hydroxypropylcellulose) (HPC) 114 % of control | dose: 250.0 mg/kg/injection, schedule: Q01DX001 (ip), vehicle: Klucel (hydroxypropylcellulose) (HPC) 101 % of control

O=C1/C(=C\c2ccccc2)Oc2cc(O)c(O)cc21
inactive: dose: 100.0 mg/kg/injection, schedule: Q01DX001 (ip), vehicle: saline with Tween-80 98 % of control

Cn1c(=O)c2[nH]c(CCC3CCCC3)nc2n(C)c1=O
inactive: dose: 50.0 mg/kg/injection, schedule: Q01DX001 (ip), vehicle: saline 98 % of control | [10] 96 % of control | [11] 96 % of control | [12] 101 % of control
